Test results from patent publication US20170217976A1, “6-(AMINO ACID)-MORPHINAN DERIVATIVES IN COMBINATION WITH PERMEATION […] FOR USE AS AN ORALLY, […], TRA[…] NASALLY AD[…]” (C[…], priority 2014, published 2017).
Where two headings read alike, the source gives them in different places.

Assays:
[1] = target: T1, DOR (Rattus norvegicus, UniProt P33533); assay: Opioid receptor binding, DOR, rat brain membranes
T1 construct: from tissue

[2] = target: T2, MOR (Rattus norvegicus, UniProt P33535); assay: Opioid receptor binding, MOR, rat brain membranes
T2 construct: from tissue

[3] = target: T3, KOR (Cavia porcellus, UniProt P41144); assay: Opioid receptor binding, KOR, guinea pig brain membranes
T3 construct: from tissue

[4] = Binding Ki DOR, Table 2-6, rat brain membranes
[5] = Binding Ki MOR, Table 2-6, rat brain membranes
[6] = Binding Ki KOR, Table 2-6, guinea pig brain membranes
[7] = Table 2-6, rat brain membranes, read-out: Binding Ki DOR
[8] = Table 2-6, rat brain membranes, read-out: Binding Ki MOR
[9] = Table 2-6, guinea pig brain membranes, read-out: Binding Ki KOR
[10] = Binding Ki (nM) DOR, in vitro binding assay, rat brain membranes
[11] = Binding Ki DOR, Table 1-4, rat brain membranes
[12] = Binding Ki (nM) MOR, in vitro binding assay, rat brain membranes
[13] = Binding Ki MOR, Table 1-4, rat brain membranes
[14] = Binding Ki (nM) KOR, in vitro binding assay, guinea pig brain membranes
[15] = Binding Ki KOR, Table 1-4, guinea pig brain membranes
[16] = Table 1-4, rat brain membranes, read-out: Binding Ki DOR
[17] = Table 1-4, rat brain membranes, read-out: Binding Ki MOR
[18] = Table 1-4, guinea pig brain membranes, read-out: Binding Ki KOR

T1 sequence (P33533 whole entry): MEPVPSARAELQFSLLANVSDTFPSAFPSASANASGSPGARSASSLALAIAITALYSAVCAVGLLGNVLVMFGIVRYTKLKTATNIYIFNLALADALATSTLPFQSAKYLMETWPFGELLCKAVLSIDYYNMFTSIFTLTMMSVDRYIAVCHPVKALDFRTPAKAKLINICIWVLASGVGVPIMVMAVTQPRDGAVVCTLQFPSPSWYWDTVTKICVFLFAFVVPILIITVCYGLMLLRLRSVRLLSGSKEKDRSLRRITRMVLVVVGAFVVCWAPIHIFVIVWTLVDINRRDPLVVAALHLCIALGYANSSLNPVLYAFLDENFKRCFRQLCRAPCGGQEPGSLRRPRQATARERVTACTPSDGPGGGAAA
T3 sequence (P41144 whole entry): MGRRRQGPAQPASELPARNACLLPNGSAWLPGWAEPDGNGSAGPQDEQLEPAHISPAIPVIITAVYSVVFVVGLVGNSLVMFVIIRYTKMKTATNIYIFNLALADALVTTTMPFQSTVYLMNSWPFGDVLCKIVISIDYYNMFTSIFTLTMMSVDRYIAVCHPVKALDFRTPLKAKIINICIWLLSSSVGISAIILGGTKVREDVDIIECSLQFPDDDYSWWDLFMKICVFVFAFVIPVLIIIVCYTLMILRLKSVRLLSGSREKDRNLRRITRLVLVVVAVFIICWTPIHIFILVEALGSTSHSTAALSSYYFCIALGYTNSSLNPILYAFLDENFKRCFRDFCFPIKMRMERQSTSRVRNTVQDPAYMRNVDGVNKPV
T2 sequence (P33535 whole entry): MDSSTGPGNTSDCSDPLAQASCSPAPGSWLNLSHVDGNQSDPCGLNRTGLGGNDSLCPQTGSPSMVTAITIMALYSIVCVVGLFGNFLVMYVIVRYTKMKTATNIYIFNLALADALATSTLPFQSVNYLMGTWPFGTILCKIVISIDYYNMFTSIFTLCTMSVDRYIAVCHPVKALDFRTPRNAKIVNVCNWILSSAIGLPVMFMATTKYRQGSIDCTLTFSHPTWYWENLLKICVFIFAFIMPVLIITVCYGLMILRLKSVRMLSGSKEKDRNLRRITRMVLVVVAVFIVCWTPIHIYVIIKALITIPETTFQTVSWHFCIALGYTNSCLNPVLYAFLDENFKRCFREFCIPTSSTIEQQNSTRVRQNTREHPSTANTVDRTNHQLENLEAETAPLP

| SMILES | Ki [1, 4] [nM] | Ki [2, 5] [nM] | Ki [3, 6] [nM] | other results |
| --- | --- | --- | --- | --- |
| CC(C)(C)OC(=O)[C@H](Cc1ccccc1)N[C@H]1CC[C@@]2(O)[C@H]3Cc4ccc(O)c5c4[C@@]2(CCN3CC2CC2)[C@H]1O5 [59-tBu ester] | 2.15 | 1 | 5 | – |
| CC(C)(C)OC(=O)[C@H](Cc1ccccc1)N[C@@H]1CC[C@@]2(O)[C@H]3Cc4ccc(O)c5c4[C@@]2(CCN3CC2CC2)[C@H]1O5 [60-tBu ester] | 1.12 | 5.49 | 17.6 | – |
| CO[C@@]12CC[C@H](NCC(=O)OC(C)(C)C)[C@@H]3Oc4c(O)ccc5c4[C@@]31CCN(CC1CC1)[C@@H]2C5 [61-tBu ester] | 0.5 | 0.43 | 1.41 | – |
| CO[C@@]12CC[C@@H](NCC(=O)OC(C)(C)C)[C@@H]3Oc4c(O)ccc5c4[C@@]31CCN(CC1CC1)[C@@H]2C5 [62-Bu ester] | – | – | – | Ki [1, 7]: 0.96 nM; Ki [2, 8]: 2.66 nM; Ki [3, 9]: 8.36 nM |
| CO[C@@]12CC[C@@H](NCCC(=O)OC(C)(C)C)[C@@H]3Oc4c(O)ccc5c4[C@@]31CCN(CC1CC1)[C@@H]2C5 [64-tBu ester] | 0.91 | 1.52 | 2.13 | – |
| CO[C@@]12CC[C@H](NCCCC(=O)OC(C)(C)C)[C@@H]3Oc4c(O)ccc5c4[C@@]31CCN(CC1CC1)[C@@H]2C5 [65-tBu ester] | 2.69 | 0.46 | 0.6 | – |
| CO[C@@]12CC[C@@H](NCCCC(=O)OC(C)(C)C)[C@@H]3Oc4c(O)ccc5c4[C@@]31CCN(CC1CC1)[C@@H]2C5 [66-tBu ester] | 3.78 | 2.13 | 2.81 | – |
| CO[C@@]12CC[C@H](N[C@H](C(=O)OC(C)(C)C)C(C)C)[C@@H]3Oc4c(O)ccc5c4[C@@]31CCN(CC1CC1)[C@@H]2C5 [68-tBu ester] | – | – | – | Ki [1, 7]: 0.85 nM; Ki [2, 8]: 1.81 nM; Ki [3, 9]: 3.13 nM |
| CO[C@@]12CC[C@@H](N[C@H](C(=O)OC(C)(C)C)C(C)C)[C@@H]3Oc4c(O)ccc5c4[C@@]31CCN(CC1CC1)[C@@H]2C5 [69-tBu ester] | 0.7 | 1.23 | 4.32 | – |
| CO[C@@]12CC[C@H](N[C@@H](C(=O)OC(C)(C)C)C(C)C)[C@@H]3Oc4c(O)ccc5c4[C@@]31CCN(CC1CC1)[C@@H]2C5 [70-tBu ester] | 0.51 | 0.63 | 18.8 | – |
| CO[C@@]12CC[C@@H](N[C@@H](C(=O)OC(C)(C)C)C(C)C)[C@@H]3Oc4c(O)ccc5c4[C@@]31CCN(CC1CC1)[C@@H]2C5 [71-tBu ester] | 0.24 | 1.94 | 15.2 | – |
| CO[C@@]12CC[C@H](N[C@@H](CC(C)C)C(=O)OC(C)(C)C)[C@@H]3Oc4c(O)ccc5c4[C@@]31CCN(CC1CC1)[C@@H]2C5 [76-tBu ester] | 0.092 | 0.13 | 0.8 | – |
| CO[C@@]12CC[C@@H](N[C@@H](CC(C)C)C(=O)OC(C)(C)C)[C@@H]3Oc4c(O)ccc5c4[C@@]31CCN(CC1CC1)[C@@H]2C5 [77-tBu ester] | 0.094 | 0.13 | 0.68 | – |
| CC[C@H](C)[C@H](N[C@@H]1CC[C@@]2(OC)[C@H]3Cc4ccc(O)c5c4[C@@]2(CCN3CC2CC2)[C@H]1O5)C(=O)OC(C)(C)C [78-tBu ester] | 0.52 | 0.98 | 5.67 | – |
| CCO[C@@]12CC[C@H](NCC(=O)O)[C@@H]3Oc4c(O)ccc5c4[C@@]31CCN(C)[C@@H]2C5 [Compound 5] | – | – | – | Ki [1, 10]: 10.3 nM; Ki [1, 11]: 10.3 nM; Ki [2, 12]: 0.57 nM; Ki [2, 13]: 0.57 nM; Ki [3, 14]: 45.2 nM; Ki [3, 15]: 45.2 nM |
| CCO[C@@]12CC[C@@H](NCC(=O)O)[C@@H]3Oc4c(O)ccc5c4[C@@]31CCN(C)[C@@H]2C5 [Compound 6] | – | – | – | Ki [1, 10]: 5.31 nM; Ki [1, 11]: 5.31 nM; Ki [2, 12]: 0.95 nM; Ki [2, 13]: 0.95 nM; Ki [3, 14]: 102 nM; Ki [3, 15]: 102 nM |
| CN1CC[C@]23c4c5ccc(O)c4O[C@H]2[C@@H](N[C@@H](Cc2ccccc2)C(=O)O)CC[C@@]3(O)[C@H]1C5 [Compound 11] | – | – | – | Ki [1, 11]: 19 nM; Ki [2, 13]: 2.3 nM; Ki [3, 15]: 344 nM |
| CN1CC[C@]23c4c5ccc(O)c4O[C@H]2[C@H](N[C@@H](Cc2ccccc2)C(=O)O)CC[C@@]3(O)[C@H]1C5 [Compound 12] | – | – | – | Ki [1, 16]: 8.29 nM; Ki [2, 17]: 6.91 nM; Ki [3, 18]: 634 nM |
| CC(NC1CCC2(O)C3Cc4ccc(O)c5c4C2(CCN3C)C1O5)C(=O)O (stereo not drawn) [Compound 13] | – | – | – | Ki [1, 16]: 170 nM; Ki [2, 17]: 3 nM; Ki [3, 18]: 710 nM |
| C[C@H](N[C@@H]1CC[C@@]2(O)[C@H]3Cc4ccc(O)c5c4[C@@]2(CCN3C)[C@H]1O5)C(=O)O [Compound 14] | – | – | – | Ki [1, 11]: 78.7 nM; Ki [2, 13]: 11 nM; Ki [3, 15]: 542 nM |
